Test results taken from PMC8069897, “A Targeted-Covalent Inhibitor of 17β-HSD1 Blocks Two Estrogen-Biosynthesis Pathways: In Vitro (Metabolism) and In Vivo (Xenograft) Studies in T-47D Breast Cancer Models” (Cancers, 2021).

Biological target: T1, 17β-hydroxysteroid dehydrogenase type 1 (17β-HSD1) (Homo sapiens, UniProt P14061)
T1 construct: gene HSD17B1
T1 sequence (P14061 2-328): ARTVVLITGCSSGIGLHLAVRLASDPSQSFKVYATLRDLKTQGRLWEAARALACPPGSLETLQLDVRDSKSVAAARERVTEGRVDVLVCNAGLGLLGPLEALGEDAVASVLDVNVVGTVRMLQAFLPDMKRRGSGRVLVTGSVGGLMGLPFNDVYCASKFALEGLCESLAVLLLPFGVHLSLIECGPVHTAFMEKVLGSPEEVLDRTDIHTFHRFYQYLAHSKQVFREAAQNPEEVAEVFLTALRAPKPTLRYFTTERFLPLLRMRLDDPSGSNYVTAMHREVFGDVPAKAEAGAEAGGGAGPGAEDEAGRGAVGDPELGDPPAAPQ
Assay: inhibition of […]-DHEA to […]-5-diol conversion in intact T-47D cells (endogenous […]β-HSD1), TLC
Assay type: cell-based

**Q.** C[C@]12CC[C@@H]3c4ccc(CCBr)cc4CC[C@H]3[C@@H]1C[C@H](Cc1cccc(C(N)=O)c1)[C@@H]2O [PBRM] was tested. Which IC50 did it give?
**A.** Its IC50 is 0.77 µM.
